The target of this experiment is ERAP2 (Homo sapiens, UniProt Q6P179). Kind of experiment: biochemical.

Where a SMILES comes first, the peptide text is derived from it.

ERAP2, sequence (Q6P179 whole entry): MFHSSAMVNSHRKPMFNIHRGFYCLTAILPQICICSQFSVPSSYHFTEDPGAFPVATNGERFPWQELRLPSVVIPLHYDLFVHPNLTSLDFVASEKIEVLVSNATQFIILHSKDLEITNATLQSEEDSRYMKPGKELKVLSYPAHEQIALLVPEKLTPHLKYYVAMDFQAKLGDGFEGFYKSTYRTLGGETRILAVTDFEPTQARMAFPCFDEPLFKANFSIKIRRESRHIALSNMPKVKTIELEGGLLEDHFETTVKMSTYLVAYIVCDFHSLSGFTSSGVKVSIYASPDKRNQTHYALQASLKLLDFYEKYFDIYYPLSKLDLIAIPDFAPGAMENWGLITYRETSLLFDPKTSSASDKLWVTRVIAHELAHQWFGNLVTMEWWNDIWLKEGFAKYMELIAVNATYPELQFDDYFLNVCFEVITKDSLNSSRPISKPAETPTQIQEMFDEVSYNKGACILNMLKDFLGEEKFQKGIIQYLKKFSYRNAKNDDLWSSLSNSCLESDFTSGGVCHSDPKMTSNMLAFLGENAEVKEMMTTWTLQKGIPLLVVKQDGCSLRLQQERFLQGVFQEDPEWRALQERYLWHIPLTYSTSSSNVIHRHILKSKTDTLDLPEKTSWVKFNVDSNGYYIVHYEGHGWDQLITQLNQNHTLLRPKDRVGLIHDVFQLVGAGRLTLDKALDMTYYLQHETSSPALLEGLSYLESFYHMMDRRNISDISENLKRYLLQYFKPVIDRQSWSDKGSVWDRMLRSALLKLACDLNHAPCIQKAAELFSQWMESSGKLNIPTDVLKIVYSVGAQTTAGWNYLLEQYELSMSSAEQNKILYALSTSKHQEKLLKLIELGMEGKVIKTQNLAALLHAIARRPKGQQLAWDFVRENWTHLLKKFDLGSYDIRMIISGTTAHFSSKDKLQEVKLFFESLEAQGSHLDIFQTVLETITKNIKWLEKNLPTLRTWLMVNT
Procedure: Substrate hydrolysis was assessed by measuring the fluorescence of free AMC at 14-s intervals, at 380nm and 460 nm excitation and emission wavelengths, respectively, in a Fluostar Optima Multiwave Plate Reader (BMG Labtec, Ortenberg, Germany).

The term IC50 denotes the midpoint of a concentration-inhibition curve. A high value points to weaker potency in that assay. The compound `CC[C@H](C)[C@H](NC(=O)[C@H](CCC(N)=O)NC(=O)[C@H](Cc1ccccc1)NC(=O)[C@@H](NC(=O)[C@H](CC(=O)O)NC(=O)CNC(=O)[C@H](Cc1ccc(O)cc1)NC(=O)[C@H](CCCNC(=N)N)NC(=O)[C@H](CCCNC(=N)N)NC(=O)[C@H](C)NC(=O)[C@@H](N)CC(C)C)C(C)C)C(=O)O` (H-LARRYGDVFQI-OH) yielded an IC50 of 18.6 µM.
In the case of `CC(C)C[C@H](NC(=O)[C@H](CCCCN)NC(=O)[C@H](CC(=O)O)NC(=O)CNC(=O)[C@H](Cc1ccccc1)NC(=O)[C@H](CCCNC(=N)N)NC(=O)[C@H](CCCNC(=N)N)NC(=O)[C@H](CC(C)C)NC(=O)[C@@H](N)CCC(N)=O)C(=O)N[C@@H](CC(N)=O)C(=O)N[C@@H](Cc1ccccc1)C(=O)O` (H-QLRRFGDKLNF-OH) it was 13.2 µM; in that of `CC(C)C[C@H](NC(=O)[C@H](Cc1ccc(O)cc1)NC(=O)[C@@H]1CCCN1C(=O)[C@H](CO)NC(=O)[C@H](CCCCN)NC(=O)CNC(=O)[C@H](Cc1ccc(O)cc1)NC(=O)[C@H](CCCNC(=N)N)NC(=O)[C@H](C)NC(=O)[C@H](CC(C)C)NC(=O)[C@@H](N)CO)C(=O)N[C@@H](Cc1ccc(O)cc1)C(=O)O` (H-SLARYGKSPYLY-OH), 2.88 µM.

The values are drawn from article PMC9774488, “The ER Aminopeptidases, ERAP1 and ERAP2, synergize to self-modulate their respective activities” (Frontiers in Immunology, 2022).
